Results: ChEMBL document CHEMBL4765487, “From a Designer Drug to the Discovery of Selective Cannabinoid Type 2 Receptor Agonists with Favorable Pharmacokinetic Profiles for the Treatment of Systemic Sclerosis” (J Med Chem, 2021)
Calls of active or inactive are those of the source. The calls are words filed in the database; no cut-off is given here.

Tests used:
[1] = Clearance in BALB/c mouse at 1 mg/kg, iv measured during 0.083 to 24 hrs post dose by LC-MS/MS analysis; assay type: ADME, organism-based; conditions: in vivo, time 0.083-24 hrs
Cannabinoid receptor 1 [2] = biological target: T1, Cannabinoid receptor 1 (Homo sapiens, UniProt P21554); assay: Agonist activity at human CB1 receptor expressed in HEK293 cells after 24 hrs by luciferase reporter gene assay based Tango beta-arrestin recruitment method; assay type: cell-based
Cannabinoid receptor 1 [3] = biological target: T1, Cannabinoid receptor 1; assay: Induction of receptor desensitization at human CB1 receptor expressing CHO cells co-expressing Galpha16 at 10 uM followed by washing with HBSS buffer upon incubation for 10 mins and restimulated with CP55940 by calcium mobilization assay; assay type: functional, cell-based; conditions: filed as agonist
[4] = Cmax in BALB/c mouse at 1 mg/kg, iv measured during 0.083 to 24 hrs post dose by LC-MS/MS analysis; assay type: ADME, organism-based; set-up: route intravenous, time upper 24 hrs, dose 1 mg/kg, time lower 0.083 hrs; conditions: in vivo
Mus musculus [5] = assay: Antifibrotic activity in BALB/c mouse model of BLM-induced systemic sclerosis assessed as reduction in TNF-alpha mRNA expression at 1 to 5 mg/kg, sc dosed once daily for 4 weeks by quantitative real-time PCR analysis; assay type: functional, organism-based; conditions: dose 1-5 mg/kg
Homo sapiens = species: Homo sapiens; assay: Selectivity index, ratio of EC50 for agonist activity at human CB1 receptor expressing CHO cells co-expressing Galpha16 by calcium mobilization assay to EC50 for agonist activity at human CB2 receptor expressing CHO cells co-expressing Galpha16 by calcium mobilization assay
[6] = Volume of distribution in BALB/c mouse at 1 mg/kg, iv measured during 0.083 to 24 hrs post dose by LC-MS/MS analysis; assay type: ADME, organism-based; conditions: in vivo, time 0.083-24 hrs
Cannabinoid receptor 2 [7] = biological target: T2, Cannabinoid receptor 2 (Homo sapiens, UniProt P34972); assay: Agonist activity at human CB2 receptor expressing CHO cells co-expressing Galpha16 in presence of CB2 antagonist AM630 by calcium mobilization assay; assay type: functional, cell-based
Cannabinoid receptor 2 [8] = biological target: T2, Cannabinoid receptor 2; assay: Agonist activity at human CB2 receptor expressed in HEK293 cells after 24 hrs by luciferase reporter gene assay based Tango beta-arrestin recruitment method; assay type: cell-based
in vitro [9] = conditions: human, liver microsomes
[10] = biological target: T3, Probable G-protein coupled receptor 132 (Homo sapiens) (UniProt Q9UNW8); assay: Agonist activity at GPR132 (unknown origin) at 10 uM
T3 sequence (whole entry): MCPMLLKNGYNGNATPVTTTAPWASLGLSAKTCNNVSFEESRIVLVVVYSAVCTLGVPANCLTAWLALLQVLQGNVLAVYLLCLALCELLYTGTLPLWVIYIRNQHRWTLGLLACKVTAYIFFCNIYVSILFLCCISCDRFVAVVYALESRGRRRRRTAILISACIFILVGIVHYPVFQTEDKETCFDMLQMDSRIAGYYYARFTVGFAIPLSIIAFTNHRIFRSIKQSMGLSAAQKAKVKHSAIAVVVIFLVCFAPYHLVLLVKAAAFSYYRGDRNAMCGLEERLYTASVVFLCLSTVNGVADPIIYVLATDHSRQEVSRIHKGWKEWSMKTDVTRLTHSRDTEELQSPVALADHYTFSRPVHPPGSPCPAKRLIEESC

Mus musculus [11] = assay: Antifibrotic activity in BALB/c mouse model of BLM-induced systemic sclerosis assessed as reduction in alpha-SMA expression at 1 to 5 mg/kg, sc dosed once daily for 4 weeks by immunohistochemical analysis; assay type: functional, organism-based; conditions: dose 1-5 mg/kg
Mus musculus [12] = assay: Antifibrotic activity in BALB/c mouse model of BLM-induced systemic sclerosis assessed as reduction in Col1alpha mRNA expression at 1 to 5 mg/kg, sc dosed once daily for 4 weeks by quantitative real-time PCR analysis; assay type: functional, organism-based; conditions: dose 1-5 mg/kg
[13] = AUC (0 to infinity) in BALB/c mouse at 1 mg/kg, iv measured during 0.083 to 24 hrs post dose by LC-MS/MS analysis; assay type: ADME, organism-based; set-up: route intravenous, time lower 0.083 hrs, dose 1 mg/kg, time upper 24 hrs; conditions: in vivo
[14] = Toxicity in BALB/c mouse model of BLM-induced systemic sclerosis assessed as effect on body weight at 1 to 5 mg/kg, sc dosed once daily for 4 weeks; assay type: organism-based; conditions: in vivo, 672 h, dose 1-5 mg/kg
Cannabinoid receptor 2 [15] = biological target: T2, Cannabinoid receptor 2; assay: Agonist activity at human CB2 receptor expressed in CHO cells assessed as increase in ERK1/2 Thr202/Tyr204 phosphorylation at 0.1 to 10 uM incubated for 15 mins by Western blot analysis; assay type: cell-based; conditions: filed as agonist, dose 0.1-10 µM
Mus musculus [16] = assay: Antifibrotic activity in BALB/c mouse model of BLM-induced systemic sclerosis assessed as reduction in alpha-SMA mRNA expression at 1 to 5 mg/kg, sc dosed once daily for 4 weeks by quantitative real-time PCR analysis; assay type: functional, organism-based; conditions: dose 1-5 mg/kg
[17] = biological target: T4, Glucose-dependent insulinotropic receptor (Homo sapiens) (UniProt Q8TDV5); assay: Agonist activity at GPR119 (unknown origin) at 10 uM
T4 sequence (whole entry): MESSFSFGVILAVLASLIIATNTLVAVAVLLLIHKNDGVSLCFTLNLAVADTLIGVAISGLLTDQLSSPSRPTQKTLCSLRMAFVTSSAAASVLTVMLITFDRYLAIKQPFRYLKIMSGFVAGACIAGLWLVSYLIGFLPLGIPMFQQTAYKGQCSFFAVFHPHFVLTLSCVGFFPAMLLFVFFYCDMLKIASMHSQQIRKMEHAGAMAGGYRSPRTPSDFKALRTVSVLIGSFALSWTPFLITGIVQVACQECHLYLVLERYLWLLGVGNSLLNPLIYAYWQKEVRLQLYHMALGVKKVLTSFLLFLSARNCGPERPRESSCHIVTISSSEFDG

Cannabinoid receptor 2 [18] = biological target: T2, Cannabinoid receptor 2; assay: Agonist activity at human CB2 receptor expressing CHO cells co-expressing Galpha16 by calcium mobilization assay relative to CP55940; assay type: functional, cell-based; conditions: filed as agonist
[19] = Cmax in BALB/c mouse at 5 mg/kg, po measured during 0.083 to 24 hrs post dose by LC-MS/MS analysis; assay type: ADME, organism-based; set-up: route oral, time 0.083-24 hrs, dose 5 mg/kg; conditions: in vivo
[20] = biological target: Prostaglandin E2 receptor EP4 subtype (Homo sapiens) (UniProt P35408); assay: Antagonist activity at EP4 (unknown origin) at 10 uM
[21] = Half life in BALB/c mouse at 5 mg/kg, po measured during 0.083 to 24 hrs post dose by LC-MS/MS analysis; assay type: ADME, organism-based; conditions: in vivo, time 0.083-24 hrs
[22] = Clearance in BALB/c mouse at 5 mg/kg, po measured during 0.083 to 24 hrs post dose by LC-MS/MS analysis; assay type: ADME, organism-based; conditions: in vivo, time 0.083-24 hrs
[23] = biological target: Prostaglandin E2 receptor EP4 subtype (Homo sapiens) (UniProt P35408); assay: Agonist activity at EP4 (unknown origin) at 10 uM
Cannabinoid receptor 2 [24] = biological target: T2, Cannabinoid receptor 2; assay: Agonist activity at human CB2 receptor expressing CHO cells co-expressing Galpha16 by calcium mobilization assay; assay type: functional, cell-based
[25] = biological target: Prostaglandin E2 receptor EP4 subtype (Homo sapiens) (UniProt P35408); assay: Antagonist activity at EP2 (unknown origin) at 10 uM
[26] = biological target: T3, Probable G-protein coupled receptor 132 (Homo sapiens); assay: Antagonist activity at GPR132 (unknown origin) at 10 uM
CHO = assay: Effect on ERK1/2 Thr202/Tyr204 phosphorylation in CHO cells at 0.1 to 10 uM incubated for 15 mins by Western blot analysis; assay type: functional, cell-based; conditions: Cricetulus griseus, dose 0.1-10 µM
Cannabinoid receptor 1 [27] = biological target: T1, Cannabinoid receptor 1; assay: Agonist activity at human CB1 receptor expressing CHO cells co-expressing Galpha16 at 10 uM by calcium mobilization assay; assay type: functional, cell-based; conditions: filed as agonist
in vitro [28] = conditions: human, liver

T1 sequence (P21554 whole entry): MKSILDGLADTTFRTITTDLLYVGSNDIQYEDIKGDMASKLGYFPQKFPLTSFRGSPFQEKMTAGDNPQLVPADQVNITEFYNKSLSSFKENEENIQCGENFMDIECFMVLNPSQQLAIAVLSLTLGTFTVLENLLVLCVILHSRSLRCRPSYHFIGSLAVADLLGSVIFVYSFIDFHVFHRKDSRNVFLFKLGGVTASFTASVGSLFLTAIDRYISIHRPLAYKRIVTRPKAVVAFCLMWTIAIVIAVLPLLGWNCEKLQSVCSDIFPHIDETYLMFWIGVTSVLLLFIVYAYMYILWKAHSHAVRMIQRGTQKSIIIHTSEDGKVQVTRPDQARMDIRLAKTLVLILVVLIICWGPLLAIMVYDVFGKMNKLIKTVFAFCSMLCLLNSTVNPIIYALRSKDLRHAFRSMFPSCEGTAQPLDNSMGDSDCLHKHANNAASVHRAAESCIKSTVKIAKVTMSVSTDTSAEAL
Chain of Prostaglandin E2 receptor EP4 subtype (Homo sapiens) (P35408 whole entry): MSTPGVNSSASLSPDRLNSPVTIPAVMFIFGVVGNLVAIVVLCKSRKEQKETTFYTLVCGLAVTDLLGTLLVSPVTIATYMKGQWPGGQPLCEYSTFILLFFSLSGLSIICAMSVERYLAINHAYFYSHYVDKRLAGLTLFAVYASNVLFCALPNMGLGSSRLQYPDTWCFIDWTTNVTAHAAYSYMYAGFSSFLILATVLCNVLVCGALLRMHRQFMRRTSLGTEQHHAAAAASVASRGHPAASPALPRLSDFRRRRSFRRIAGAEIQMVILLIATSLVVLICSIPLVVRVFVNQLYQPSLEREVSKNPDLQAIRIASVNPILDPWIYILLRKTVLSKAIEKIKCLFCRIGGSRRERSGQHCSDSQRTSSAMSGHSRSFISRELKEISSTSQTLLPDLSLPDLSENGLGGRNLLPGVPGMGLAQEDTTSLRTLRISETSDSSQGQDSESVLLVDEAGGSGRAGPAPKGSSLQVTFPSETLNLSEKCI
T2 sequence (P34972 whole entry): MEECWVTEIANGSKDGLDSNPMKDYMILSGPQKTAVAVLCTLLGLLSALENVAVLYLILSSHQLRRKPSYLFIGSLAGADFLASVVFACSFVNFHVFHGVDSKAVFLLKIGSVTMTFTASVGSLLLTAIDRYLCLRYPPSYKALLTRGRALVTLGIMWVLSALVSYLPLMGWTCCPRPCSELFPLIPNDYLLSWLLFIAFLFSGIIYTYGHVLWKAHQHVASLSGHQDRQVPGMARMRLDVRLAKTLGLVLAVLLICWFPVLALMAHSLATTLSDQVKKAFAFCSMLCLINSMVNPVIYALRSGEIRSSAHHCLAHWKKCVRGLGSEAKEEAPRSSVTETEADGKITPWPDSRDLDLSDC

For `CC(C)(CO)NC(=O)c1cc(C(C)(C)C)n(-c2ccc(C(F)(F)F)cn2)n1`, which clearance [1] is on record?
Its clearance is 40 mL/min/kg.

What about the EC50 (Cannabinoid receptor 1 [2]) of the same compound?
Its EC50 is over 10000 nM.

And the Activity (Cannabinoid receptor 1 [3])?
The Activity was “Active”.

And the Cmax [4]?
The Cmax was 959 ng/mL.

What about the Activity (Mus musculus [5]) of the same compound?
The Activity was “Active”.

And the Ratio EC50 (Homo sapiens)?
The Ratio EC50 was over 100.

And the Vd [6]?
The Vd was 4.5 L/kg.

And the Activity (Cannabinoid receptor 2 [7])?
Its Activity is “inactive”.

And the EC50 (Cannabinoid receptor 2 [8])?
Its EC50 is 562 nM.

What about the microsomal CLint at 1 µM (in vitro [9]) of the same compound?
Its microsomal CLint at 1 µM is 12.3 µL/min/mg.

What about the Activity [10] of the same compound?
The Activity was “inactive”.

And the Activity (Mus musculus [11])?
Its Activity is “Active”.

And the Activity (Mus musculus [12])?
The Activity was “Active”.

What about the AUC(0-inf) [13] of the same compound?
The AUC(0-inf) was 422 ng·h/mL.

What about the Activity [14] of the same compound?
The Activity was “Non-Toxic”.

And the Activity (Cannabinoid receptor 2 [15])?
Its Activity is “Active”.

And the Activity (Mus musculus [16])?
The Activity was “Active”.

And the Activity [17]?
Its Activity is “inactive”.

What about the Emax (Cannabinoid receptor 2 [18]) of the same compound?
The Emax was 100%.

What about the Cmax [19] of the same compound?
The Cmax was 603 ng/mL.

And the Activity [20]?
The Activity was “inactive”.

And the half-life [21]?
The half-life was 2.18 h.

What about the CL/F [22] of the same compound?
The CL/F was 51.7 mL/min/kg.

And the Activity [23]?
The Activity was “inactive”.

And the EC50 (Cannabinoid receptor 2 [24])?
Its EC50 is 15.2 nM.

What about the Activity [25] of the same compound?
Its Activity is “inactive”.

What about the Activity [26] of the same compound?
Its Activity is “inactive”.

And the Activity (CHO)?
The Activity was “inactive”.

And the Activity (Cannabinoid receptor 1 [27])?
Its Activity is “Active”.

What about the CLint scaled at 1 µM (in vitro [28]) of the same compound?
The CLint scaled at 1 µM was 11.1 mL/min/kg.
